Data on four compounds can be found in patent US6864253B2, “Benzo[4,5]thieno[2,3-c]pyridine and Benzo[4,5]furo[2,3-c]pyridine Derivatives Useful as Inhibitors of Phosphodiesterase” (Orth-McNeil Pharmaceutical, Inc., priority 2000, dated 2005).

Series [1] concerns erectile dysfunction. The settings on record: cited from earlier work.
Series [2] concerns the target T1, PDEV (Oryctolagus cuniculus, UniProt G1SX67). The experiment in a line: In vitro determination of Ki for phosphodiesterase inhibitors (IC50/Ki, 30 nM 3H-cGMP). The class given is biochemical. The settings on record: printed in the % INH column as Ki value.
Description: The assay was adapted to a 96-well format. Phosphodiesterase was assayed in 5 mM MgCl2, 15 mM Tris HCl (pH 7.4), 0.5 mg/ml bovine serum albumin, 30 nM ^3H-cGMP and test compound at various concentrations. […] For all measurements, the test compound was dissolved and diluted in 100% DMSO (2% DMSO in assay). The total volume of the assay was 100 μl. The reaction mixture was incubated at 30° C. for 90 minutes. The reaction was stopped by boiling for 1 minute and then immediately cooled by transfer to an ice bath. To each well was then added 25 μl 1 mg/ml snake venom (Ophiophagus hannah) and the reaction mixture incubating at 30° C. for 10 minute. The reaction was stopped by the addition of 1 ml Bio-Rad AG1-X2 resin slurry (1:3). An aliquot of 200 μl was taken and counted by liquid scintillation.
The % inhibition of the maximum substrate conversion (by the enzyme in the absence of inhibitor) was calculated for each test compound concentration. Using GraphPad Prism′s nonlinear regression analysis (sigmoidal dose response), the % inhibition vs log of the test compound concentration was plotted to determine the IC50. Under conditions where substrate concentration <<Km of the enzyme (Km=substrate concentration at which half of the maximal velocity of the enzyme is achieved), Ki is equivalent to the IC50 value. […]
Series [3] deals with T1, PDEV. The experiment in a line: Cyclic nucleotide phosphodiesterase (PDE) assay, inhibition of PDEV isolated from rabbit tissue. It is filed as biochemical. The settings on record: 10 μM test compound; rabbit PDEV; read-out: % Inh @ 10 μM (rabbit). The procedure, abridged:
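PDEV came from rabbit tissue homogenate, using Mono Q anion-exchange fractions. Reactions used 1 μM cGMP or cAMP with [3H]-tracer, 5 mM MgCl2 and Tris pH 7.4 at 30 °C for 30 min; snake venom converted product to [3H]-nucleosides, read by scintillation after resin separation. Inhibitors ran in 10% DMSO final.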

As to `CCCc1nn(C)c2c(=O)[nH]c(-c3cc(S(=O)(=O)N4CCN(C)CC4)ccc3OCC)nc12` [sildenafil, 5-[2-ethoxy-5-(4-methylpiperazin-1-ylsulphonyl)phenyl]-1-methyl-3-n-propyl-6,7-dihydro-1H-pyrazolo[4,3-d]pyrimidin-7-one], in series [1] (men who suffer from ED of psychogenic or organic etiology), the “improved sexual function, share of men” value is given as “about 70%”. Also, in series [1] (patients who had undergone a radical prostatectomy, 15% on placebo), the “improved erections, share of patients” value is on record as 43%.
`Cc1ncc(-c2cnc(N3CCc4c([nH]c5ccccc45)C3c3ccc4c(c3)CCO4)nc2)n1C` (stereo not drawn) [Cmpd 190, 1-(2,3-Dihydro-benzofuran-5-yl)-2-[5-(2,3-dimethyl-3H-imidazol-4-yl)-pyrimidin-2-yl]-2,3,4,9-tetrahydro-1H-β-carboline]: the Ki in series [2] stood at 14.2 nM.
`COc1ccc(-c2cnc(N3CCc4c([nH]c5ccccc45)C3c3ccc4c(c3)OCO4)nc2)cc1OC` (stereo not drawn) [Cmpd 7, 1-(3,4-Methylenedioxyphenyl)-2-[5-(3,4-dimethoxyphenyl)pyrimidin-2-yl]-2,3,4,9-tetrahydro-1H-β-carboline] showed a melting point of 173 to 175 °C. Besides, in series [3], the inhibition at 10 µM amounted to 91%.
`c1ccc(-c2ccc(N3CCc4c([nH]c5ccccc45)C3c3ccc4c(c3)CCO4)nc2)nc1` (stereo not drawn) [Cmpd 191, 2-[2,3′]Bipyridinyl-6′-yl-1-(2,3-dihydro-benzofuran-5-yl)-2,3,4,9-tetrahydro-1H-β-carboline] yielded a Ki in series [2] of 0.69 nM.
